Paper PMC5111045, “Modulation of NMDA channel gating by Ca^2+ and Cd^2+ binding to the external pore mouth” (Scientific Reports, 2016)
“And” between values parts separate entries of the source, which are not always exact repeats. Equal entries are not always repeated. Where two headings read alike, the source gives them in different places.

Experiments:
[1] = biological target: T1, NMDA receptor channel (GluN1a variant/GluN2B), wild-type (Rattus norvegicus, UniProt P35439+Q00960); experiment: Outside-out patch recordings of NMDA receptor currents, wild-type channel expressed in Xenopus oocytes; type: cell-based
T1 construct: expressed in transfected cells; host or cells: Xenopus laevis oocytes (cRNA injection)
T1 sequence (Q00960 27-1482, other chains not shown): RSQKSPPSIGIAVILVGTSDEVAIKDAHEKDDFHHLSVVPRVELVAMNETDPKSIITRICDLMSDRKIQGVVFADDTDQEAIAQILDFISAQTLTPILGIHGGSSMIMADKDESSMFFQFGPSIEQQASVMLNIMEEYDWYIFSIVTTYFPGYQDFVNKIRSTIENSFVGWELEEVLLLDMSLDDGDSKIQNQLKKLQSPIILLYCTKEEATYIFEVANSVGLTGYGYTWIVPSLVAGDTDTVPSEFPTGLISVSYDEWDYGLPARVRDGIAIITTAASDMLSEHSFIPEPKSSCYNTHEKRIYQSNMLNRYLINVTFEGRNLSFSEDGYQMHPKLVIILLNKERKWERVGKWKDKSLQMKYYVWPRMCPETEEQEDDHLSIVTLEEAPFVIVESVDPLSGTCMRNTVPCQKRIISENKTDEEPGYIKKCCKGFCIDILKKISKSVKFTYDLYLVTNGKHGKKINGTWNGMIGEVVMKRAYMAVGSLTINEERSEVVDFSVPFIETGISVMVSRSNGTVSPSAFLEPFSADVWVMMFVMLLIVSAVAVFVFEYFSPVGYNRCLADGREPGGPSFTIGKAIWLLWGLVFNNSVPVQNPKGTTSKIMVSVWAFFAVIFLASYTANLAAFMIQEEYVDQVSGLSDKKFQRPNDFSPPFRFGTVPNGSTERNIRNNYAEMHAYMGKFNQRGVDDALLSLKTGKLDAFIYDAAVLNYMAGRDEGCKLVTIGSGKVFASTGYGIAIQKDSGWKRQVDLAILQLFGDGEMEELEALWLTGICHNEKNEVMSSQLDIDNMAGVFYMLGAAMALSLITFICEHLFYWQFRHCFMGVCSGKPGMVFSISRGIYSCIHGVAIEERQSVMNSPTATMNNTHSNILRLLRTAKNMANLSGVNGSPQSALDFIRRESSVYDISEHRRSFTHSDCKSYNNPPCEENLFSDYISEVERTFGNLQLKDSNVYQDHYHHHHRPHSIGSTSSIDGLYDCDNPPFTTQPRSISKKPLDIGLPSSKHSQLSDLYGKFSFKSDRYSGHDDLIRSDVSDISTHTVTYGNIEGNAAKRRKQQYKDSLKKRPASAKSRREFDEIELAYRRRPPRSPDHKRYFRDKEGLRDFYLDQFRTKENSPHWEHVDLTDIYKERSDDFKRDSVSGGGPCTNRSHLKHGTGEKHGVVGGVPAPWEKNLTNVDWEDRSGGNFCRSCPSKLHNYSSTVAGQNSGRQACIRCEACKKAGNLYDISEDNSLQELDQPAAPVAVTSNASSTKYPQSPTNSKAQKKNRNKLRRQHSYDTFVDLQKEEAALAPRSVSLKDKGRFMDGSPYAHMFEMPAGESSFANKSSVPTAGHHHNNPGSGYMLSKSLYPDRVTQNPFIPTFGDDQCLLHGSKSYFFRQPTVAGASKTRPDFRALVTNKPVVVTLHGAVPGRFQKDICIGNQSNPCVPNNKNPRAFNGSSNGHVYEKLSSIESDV
Method: (§1) The rat GluN1a variant and GluN2B cDNA clones were used in this study. Point mutations were made by site-directed mutagenesis using the QuickChange Site-Directed Mutagenesis kit (Stratagene, La Jolla, CA). Mutations were verified by DNA sequencing to ensure the lack of any inadvertent mutations. The capped cRNA transcripts were then synthesized using T7 and T3 mMESSAGE mMACHINE transcription kits (Ambion, Austin, TX), and were stored at −80 °C.
(§2) This study was carried out in accordance with the ethical information guidelines of the National Taiwan University College of Medicine. The protocols for the care and use of animals were approved by the National Taiwan University College of Medicine and College of Public Health Institutional Animal Care and Use Committee (IACUC). All efforts were made to minimize animal suffering. Adult female Xenopus laevis were anesthetized, and ovarian lobes containing stage V or VI oocytes were removed. Oocytes were dispersed after manual disruption of the egg sac, and were digested for 1 hr with collagenase type I (2 mg/ml) to remove the follicular layer. A mixture of GluN1a variant and GluN2B cRNAs with a ratio of 1:5 (i.e., 0.1–4 ng of GluN1a variant and 0.5–20 ng of GluN2B) (Kashiwagi et al. 2002) was injected into oocytes. Oocytes were maintained in the culture medium (96 mM NaCl, 2 mM KCl, 1.8 mM MgCl2, 1.8 mM CaCl2, 5 mM HEPES, and 50 ug/ml gentamycin, pH 7.6) at 18 °C for 2–3 days before electrophysiological recordings.
Oocytes were placed in a recording chamber containing Mg^2+-free bath solution (150 mM NaMeSO3, 5 mM NaCl, and 10 mM HEPES; pH 7.4). Outside-out patch recordings were obtained using fire-polished pipettes pulled from borosilicate capillaries (outer diameter, 1.55–1.60 mm; Hilgenberg, Malsfeld, Germany). Recording pipettes ([…]) were filled with the pipette solution containing 150 mM NaMeSO3, 5 mM NaCl, 5 mM EGTA, and 10 mM HEPES (pH 7.4). A seal was formed, and the outside-out patch configuration was obtained in Tyrode’s solution (150 mM NaCl, 4 mM KCl, 2 mM MgCl2, 2 mM CaCl2, and 10 mM HEPES; pH 7.4). The patch was then lifted from the bottom of the chamber and moved in front of a set of “theta glass” tubes (2.0 mm outer diameter pulled to an opening of ~300 μm in width; Warner Instrument, Hamden, CT) emitting external recording solutions. The standard external solution was Mg^2+-free Ca^2+-free Tyrode’s solution (pH 7.4), but 2 mM Ca^2+ or 0.1–100 μM Cd^2+ may be added to the external recording solution as specified in each different experimental condition. The glass-tube holder was connected to a stepper motor (SF-77B perfusion system, Warner Instrument) to achieve fast switch for rapid solution change. Drugs and salts were purchased from Sigma (St. Louis, MO). NMDA, glycine, and Cd^2+ were dissolved in water to make 100, 100, and 10 mM stock solutions, respectively. The stock solutions were then diluted into the external recording solution to make 1 to 100 μM Cd^2+, 1 to 300 μM NMDA, and 30 μM glycine. The NMDA currents were recorded at a membrane potential of −70 mV and at room temperature (~25 °C) with an […] amplifier, filtered at 1 kHz with a four-pole Bessel filter, digitized at 500 μs intervals, and stored using a Digidata-1322A analog/digital interface along with the pCLAMP software (all from MDS Analytical Technologies, Sunnyvale, CA). To plot the activation and the desensitization curves, a patch was moved from the NMDA- and glycine-free external solution to the external solution containing 0 to 100 μM NMDA and 30 μM glycine for 3 s (the desensitization prepulse), and then moved to another external solution containing 300 μM NMDA and 30 μM glycine for 3 s (the test pulse) before being moved back to the NMDA-free external solution again. The amplitude of the sustained currents in the desensitization prepulse in each different concentration of NMDA is normalized to the maximal current and plotted against the NMDA concentration to obtain the activation curve. […]

[2] = biological target: E661A mutant NMDA channel; experiment: Outside-out patch recordings, E661A mutant NMDA channel; type: cell-based, rat; details: Hill coefficient of 1 assumed
Method: as §1
(§3) This study was carried out in accordance with the ethical information guidelines of the National Taiwan University College of Medicine. The protocols for the care and use of animals were approved by the National Taiwan University College of Medicine and College of Public Health Institutional Animal Care and Use Committee (IACUC). All efforts were made to minimize animal suffering. […]
(§4) Oocytes were placed in a recording chamber containing Mg^2+-free bath solution (150 mM NaMeSO3, 5 mM NaCl, and 10 mM HEPES; pH 7.4). […] The NMDA currents were recorded at a membrane potential of −70 mV and at room temperature (~25 °C) with an […] amplifier, filtered at 1 kHz with a four-pole Bessel filter, digitized at 500 μs intervals, and stored using a Digidata-1322A analog/digital interface along with the pCLAMP software (all from MDS Analytical Technologies, Sunnyvale, CA). […]

[3] = biological target: E662A mutant NMDA channel; experiment: Outside-out patch recordings, E662A mutant NMDA channel; type: cell-based, rat; details: Hill coefficient of 1 assumed
Method: as §1, §3, §4

[4] = biological target: T2, E661AE662A double mutant NMDA channel (Rattus norvegicus, UniProt P35439+Q00960, E661A/E662A); experiment: Outside-out patch recordings, E661AE662A double mutant NMDA channel; type: cell-based; details: for coupling coefficient ((KdWT × KdE661AE662A)/(KdE661A × KdE662A)), double mutant cycle analysis: mutations E661A and E662A; for Kd: E661AE662A, Hill coefficient of 1 assumed
T2 construct: expressed in transfected cells; host or cells: Xenopus laevis oocytes (cRNA injection)
T2 sequence (Q00960 27-1482, other chains not shown): as above
Method: as §1, §2
Oocytes were placed in a recording chamber containing Mg^2+-free bath solution (150 mM NaMeSO3, 5 mM NaCl, and 10 mM HEPES; pH 7.4). Outside-out patch recordings were obtained using fire-polished pipettes pulled from borosilicate capillaries (outer diameter, 1.55–1.60 mm; Hilgenberg, Malsfeld, Germany). Recording pipettes ([…]) were filled with the pipette solution containing 150 mM NaMeSO3, 5 mM NaCl, 5 mM EGTA, and 10 mM HEPES (pH 7.4). A seal was formed, and the outside-out patch configuration was obtained in Tyrode’s solution (150 mM NaCl, 4 mM KCl, 2 mM MgCl2, 2 mM CaCl2, and 10 mM HEPES; pH 7.4). The patch was then lifted from the bottom of the chamber and moved in front of a set of “theta glass” tubes (2.0 mm outer diameter pulled to an opening of ~300 μm in width; Warner Instrument, Hamden, CT) emitting external recording solutions. The standard external solution was Mg^2+-free Ca^2+-free Tyrode’s solution (pH 7.4), but 2 mM Ca^2+ or 0.1–100 μM Cd^2+ may be added to the external recording solution as specified in each different experimental condition. The glass-tube holder was connected to a stepper motor (SF-77B perfusion system, Warner Instrument) to achieve fast switch for rapid solution change. Drugs and salts were purchased from Sigma (St. Louis, MO). NMDA, glycine, and Cd^2+ were dissolved in water to make 100, 100, and 10 mM stock solutions, respectively. The stock solutions were then diluted into the external recording solution to make 1 to 100 μM Cd^2+, 1 to 300 μM NMDA, and 30 μM glycine. The NMDA currents were recorded at a membrane potential of −70 mV and at room temperature (~25 °C) with an […] amplifier, filtered at 1 kHz with a four-pole Bessel filter, digitized at 500 μs intervals, and stored using a Digidata-1322A analog/digital interface along with the pCLAMP software (all from MDS Analytical Technologies, Sunnyvale, CA). […]

[5] = biological target: T3, D658A mutant NMDA channel (Rattus norvegicus, UniProt P35439+Q00960, D658A); experiment: Outside-out patch recordings, D658A mutant NMDA channel; type: cell-based; details: 30 μM Cd2+ between NMDA pulses; P = 0.034
T3 construct: expressed in transfected cells; host or cells: Xenopus laevis oocytes (cRNA injection)
Method: as §1, §3, §4

[6] = biological target: T4, D658AE661AE662A triple mutant NMDA channel (Rattus norvegicus, UniProt P35439+Q00960, D658A/E661A/E662A); experiment: Outside-out patch recordings, D658AE661AE662A triple mutant NMDA channel; type: cell-based
T4 construct: expressed in transfected cells; host or cells: Xenopus laevis oocytes (cRNA injection)
Method: as §1, §3, §4

[7] = biological target: T5, T647A (GluN2B) mutant NMDA channel (Rattus norvegicus, UniProt P35439+Q00960, T647A); experiment: Outside-out patch recordings, T647A (GluN2B) mutant NMDA channel; type: cell-based; details: 30 μM Cd2+
T5 construct: expressed in transfected cells; host or cells: Xenopus laevis oocytes (cRNA injection)
T5 sequence (Q00960 27-1482 T647A, other chains not shown): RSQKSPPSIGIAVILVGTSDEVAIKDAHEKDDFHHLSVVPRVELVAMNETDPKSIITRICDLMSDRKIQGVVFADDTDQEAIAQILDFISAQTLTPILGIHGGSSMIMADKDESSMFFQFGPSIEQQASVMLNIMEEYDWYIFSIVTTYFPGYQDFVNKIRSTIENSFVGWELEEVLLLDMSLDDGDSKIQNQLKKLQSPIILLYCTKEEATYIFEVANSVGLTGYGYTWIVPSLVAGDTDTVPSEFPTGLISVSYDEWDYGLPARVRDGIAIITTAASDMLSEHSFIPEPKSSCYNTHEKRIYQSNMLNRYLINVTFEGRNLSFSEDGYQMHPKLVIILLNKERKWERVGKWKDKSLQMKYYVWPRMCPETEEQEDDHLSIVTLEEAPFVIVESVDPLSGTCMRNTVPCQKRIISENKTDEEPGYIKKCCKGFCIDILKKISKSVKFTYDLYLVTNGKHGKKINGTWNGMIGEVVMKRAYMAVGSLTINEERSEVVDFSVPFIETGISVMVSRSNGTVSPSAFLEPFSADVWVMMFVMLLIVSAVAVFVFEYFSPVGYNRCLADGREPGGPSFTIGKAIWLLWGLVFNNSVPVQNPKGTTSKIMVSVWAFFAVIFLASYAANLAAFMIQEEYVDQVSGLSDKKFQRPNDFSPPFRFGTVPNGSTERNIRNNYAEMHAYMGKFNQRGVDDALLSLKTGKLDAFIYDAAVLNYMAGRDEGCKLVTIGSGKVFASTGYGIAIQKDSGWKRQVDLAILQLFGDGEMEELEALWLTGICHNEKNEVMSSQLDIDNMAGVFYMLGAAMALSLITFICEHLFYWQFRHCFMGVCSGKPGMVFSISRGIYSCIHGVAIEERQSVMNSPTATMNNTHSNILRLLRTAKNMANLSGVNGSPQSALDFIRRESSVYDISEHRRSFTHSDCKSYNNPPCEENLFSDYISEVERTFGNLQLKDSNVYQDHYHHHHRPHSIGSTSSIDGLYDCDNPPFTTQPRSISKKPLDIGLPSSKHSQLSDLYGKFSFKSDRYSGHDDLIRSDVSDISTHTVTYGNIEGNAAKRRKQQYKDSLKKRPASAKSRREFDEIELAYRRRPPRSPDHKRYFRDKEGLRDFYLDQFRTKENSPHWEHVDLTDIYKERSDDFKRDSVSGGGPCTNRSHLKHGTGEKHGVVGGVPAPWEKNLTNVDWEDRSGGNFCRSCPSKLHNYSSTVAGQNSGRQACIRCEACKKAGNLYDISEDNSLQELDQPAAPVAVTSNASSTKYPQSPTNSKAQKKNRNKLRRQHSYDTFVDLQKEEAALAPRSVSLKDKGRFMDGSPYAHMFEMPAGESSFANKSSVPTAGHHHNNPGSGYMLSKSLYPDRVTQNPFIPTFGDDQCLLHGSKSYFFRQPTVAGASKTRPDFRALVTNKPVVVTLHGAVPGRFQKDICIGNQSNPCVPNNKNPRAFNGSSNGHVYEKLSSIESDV
Method: as §1, §2, §4

[8] = Fig. 5e inset, read-out: apparent dissociation constant, closed channel, derived from relative peak current in 30 μM Cd2+
[9] = Fig. 6e inset, read-out: apparent dissociation constant, activated channel, derived from relative sustained current in 30 μM Cd2+

[Cd+2] [Cd^2+]
shift of the activation curve ([1]; 3 μM Cd2+, n = 4): moderate leftward shift | shift of the desensitization curve ([1]; 3 μM Cd2+, n = 4): moderate leftward shift | effect on NMDAR currents relative to 2 mM Ca2+ ([1]; 30 μM Cd2+ vs 2 mM Ca2+ in the extracellular milieu): stronger effects than 2 mM Ca^2+ | Kd ([1]; activated (steady-state mixture of open and desensitized) channel, Cd2+ during the NMDA pulse, Fig. 3b, n = 7, read-out: apparent dissociation constant (Kd), Hill fit of relative sustained current): ~1.6 µM | Kd ([1]; activated channel, sustained current, mean ± SEM, read-out: Kd from fits of each individual data set, Fig. 3b): 1.4 ± 0.16 µM | Hill coefficient n, relative sustained current ([1]; activated channel, Fig. 3b): 1 | slope of unbinding rates against Cd2+ concentration ([1]; activated channel, essentially zero, n = 4): ~ 0.01 M^−1s^−1 | macroscopic on rate (slope of binding rates against Cd2+ concentration) ([1]; activated channel, fast application of Cd2+, n = 4): 430000 M⁻¹ s⁻¹ | intercept of binding rates against Cd2+ concentration ([1]; activated channel, linear regression, n = 4): 9.4 s⁻¹ | macroscopic off rate (intercept of unbinding rates) ([1]; activated channel, wash-off of Cd2+, n = 4): 6.8 s⁻¹ | Kd ([1]; closed (resting) channel, Cd2+ applied in the interpulse phase, Fig. 2b, n = 7, read-out: apparent dissociation constant (Kd), Hill fit of relative peak current): 6 µM and ~6 µM | Kd ([1]; closed channel, activation speed, mean ± SEM, read-out: Kd from fits of each individual data set, Fig. 2d): 3.4 ± 0.66 µM | Kd ([1]; closed channel, peak current, mean ± SEM, read-out: Kd from fits of each individual data set, Fig. 2b): 7.6 ± 1.2 µM | Kd ([1]; closed channel, Cd2+ in the interpulse phase, Fig. 2d, n = 4, read-out: apparent dissociation constant (Kd), Hill fit of relative initial activation speed): 4.5 µM and ~4.5 µM | Hill coefficient n, relative peak current ([1]; closed channel, Fig. 2b): 1 | Hill coefficient n, relative activation speed ([1]; closed channel, Fig. 2d): 1 | Kd ([1]; equal to KCd2+,o × m/r from model fits in 3 μM Cd2+, not a precise estimate, read-out: KCd2+,d (dissociation constant for Cd2+ binding to the desensitized NMDA channel)): 1.25 µM | Kd ([1]; model fit (equations 2 and 4) to activation and desensitization data in 3 μM Cd2+, not a precise estimate, read-out: KCd2+,o (dissociation constant for Cd2+ binding to the open NMDA channel)): 2.5 µM | r value, r = m × (KCd2+,o/KCd2+,d) ([1]; model fit to activation and desensitization data in 3 μM Cd2+, m set at 4): 8 | Kd ([1]; ratio between the macroscopic off rate and on rate, Fig. 4a inset, read-out: rough estimate of the dissociation constant of Cd2+ to the open state): ~16 µM | Kd ([1]; wild-type, Hill coefficient of 1 assumed, Fig. 5e inset, read-out: apparent dissociation constant, closed channel, derived from relative peak current in 30 μM Cd2+): 19.6 µM | Kd ([1]; wild-type, Hill coefficient of 1 assumed, Fig. 6e inset, read-out: apparent dissociation constant, activated channel, derived from relative sustained current in 30 μM Cd2+): 3.2 µM | Kd [2, 8]: 40.7 µM | Kd [2, 9]: 7.7 µM | Kd [3, 8]: 37.3 µM | Kd [3, 9]: 5.6 µM | coupling coefficient ((KdWT × KdE661AE662A)/(KdE661A × KdE662A)), double mutant cycle analysis ([4]; Cd2+ binding to the activated NMDA channel): 1.03 | coupling coefficient ((KdWT × KdE661AE662A)/(KdE661A × KdE662A)), double mutant cycle analysis ([4]; Cd2+ binding to the closed NMDA channel): 0.90 | Kd [4, 8]: 70.2 µM | Kd [4, 9]: 13.9 µM | effect on peak current, closed channel, compared with WT [5]: less pronounced | effect on peak current, closed channel, compared with WT ([6]; 30 μM Cd2+ between NMDA pulses, P = 0.0093): less pronounced | effect on sustained current, activated channel, compared with WT ([6]; 30 μM Cd2+ during NMDA pulse, P = 0.00031): less pronounced | relative hook current after wash-off of agonists and blocking cation, compared with WT channel ([7]; P = 0.00012): significantly larger hook current | inhibitory effect on sustained current (relative current) compared with WT channel ([7]; n = 8 vs WT n = 6, P = 0.00037): significantly smaller effect

CN[C@H](CC(=O)O)C(=O)O [NMDA]
Kd ([1]; read-out: apparent dissociation constant of NMDA (KN), fit to activation data): 47 µM | Kd ([1]; read-out: apparent dissociation constant of NMDA (KN), fit to desensitization data): 35 µM
